In ChEMBL document CHEMBL3991601, “The target landscape of clinical kinase drugs” (Science, 2017):
Activity calls are given as the source filed them. Rule as the data show it, for most assays here: actives have a measured Kd and inactives only a lower limit.

Columns and labels:
[1] = target: Glycogen synthase kinase-3 beta (Homo sapiens, UniProt P49841)
[2] = target: Dual specificity mitogen-activated protein kinase kinase 1 (Homo sapiens, UniProt Q02750)
[3] = target: T1, Ephrin type-B receptor 2 (Homo sapiens, UniProt P29323)
T1 sequence (P29323 whole entry): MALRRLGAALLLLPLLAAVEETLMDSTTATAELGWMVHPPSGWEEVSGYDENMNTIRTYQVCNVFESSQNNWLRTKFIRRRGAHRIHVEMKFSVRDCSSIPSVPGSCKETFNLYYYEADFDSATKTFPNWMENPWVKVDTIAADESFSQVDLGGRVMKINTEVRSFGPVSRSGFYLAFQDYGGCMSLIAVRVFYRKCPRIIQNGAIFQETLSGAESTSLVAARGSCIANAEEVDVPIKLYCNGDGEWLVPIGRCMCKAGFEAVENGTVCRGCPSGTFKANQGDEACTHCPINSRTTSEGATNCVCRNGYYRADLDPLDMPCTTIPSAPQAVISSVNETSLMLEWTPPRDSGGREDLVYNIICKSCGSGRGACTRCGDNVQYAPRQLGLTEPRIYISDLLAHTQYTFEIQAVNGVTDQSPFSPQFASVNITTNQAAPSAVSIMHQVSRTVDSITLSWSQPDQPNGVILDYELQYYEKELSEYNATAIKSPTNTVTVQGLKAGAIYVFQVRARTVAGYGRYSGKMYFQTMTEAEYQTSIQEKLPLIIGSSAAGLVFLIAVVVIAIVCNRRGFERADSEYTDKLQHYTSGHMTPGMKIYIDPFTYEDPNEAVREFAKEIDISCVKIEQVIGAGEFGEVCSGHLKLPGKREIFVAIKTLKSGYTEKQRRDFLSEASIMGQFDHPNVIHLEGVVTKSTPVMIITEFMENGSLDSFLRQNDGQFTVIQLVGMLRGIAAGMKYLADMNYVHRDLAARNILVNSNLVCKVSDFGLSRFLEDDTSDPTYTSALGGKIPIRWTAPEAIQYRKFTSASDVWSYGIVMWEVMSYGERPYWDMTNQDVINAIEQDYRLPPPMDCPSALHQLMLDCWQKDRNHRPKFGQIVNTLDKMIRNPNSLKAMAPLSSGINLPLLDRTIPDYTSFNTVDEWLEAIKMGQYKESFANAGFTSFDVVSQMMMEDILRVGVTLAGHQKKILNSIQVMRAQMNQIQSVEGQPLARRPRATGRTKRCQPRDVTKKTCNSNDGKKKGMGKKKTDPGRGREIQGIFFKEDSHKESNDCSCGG

[4] = target: T2, Serine/threonine-protein kinase PLK4 (Homo sapiens, UniProt O00444)
T2 sequence (O00444 whole entry): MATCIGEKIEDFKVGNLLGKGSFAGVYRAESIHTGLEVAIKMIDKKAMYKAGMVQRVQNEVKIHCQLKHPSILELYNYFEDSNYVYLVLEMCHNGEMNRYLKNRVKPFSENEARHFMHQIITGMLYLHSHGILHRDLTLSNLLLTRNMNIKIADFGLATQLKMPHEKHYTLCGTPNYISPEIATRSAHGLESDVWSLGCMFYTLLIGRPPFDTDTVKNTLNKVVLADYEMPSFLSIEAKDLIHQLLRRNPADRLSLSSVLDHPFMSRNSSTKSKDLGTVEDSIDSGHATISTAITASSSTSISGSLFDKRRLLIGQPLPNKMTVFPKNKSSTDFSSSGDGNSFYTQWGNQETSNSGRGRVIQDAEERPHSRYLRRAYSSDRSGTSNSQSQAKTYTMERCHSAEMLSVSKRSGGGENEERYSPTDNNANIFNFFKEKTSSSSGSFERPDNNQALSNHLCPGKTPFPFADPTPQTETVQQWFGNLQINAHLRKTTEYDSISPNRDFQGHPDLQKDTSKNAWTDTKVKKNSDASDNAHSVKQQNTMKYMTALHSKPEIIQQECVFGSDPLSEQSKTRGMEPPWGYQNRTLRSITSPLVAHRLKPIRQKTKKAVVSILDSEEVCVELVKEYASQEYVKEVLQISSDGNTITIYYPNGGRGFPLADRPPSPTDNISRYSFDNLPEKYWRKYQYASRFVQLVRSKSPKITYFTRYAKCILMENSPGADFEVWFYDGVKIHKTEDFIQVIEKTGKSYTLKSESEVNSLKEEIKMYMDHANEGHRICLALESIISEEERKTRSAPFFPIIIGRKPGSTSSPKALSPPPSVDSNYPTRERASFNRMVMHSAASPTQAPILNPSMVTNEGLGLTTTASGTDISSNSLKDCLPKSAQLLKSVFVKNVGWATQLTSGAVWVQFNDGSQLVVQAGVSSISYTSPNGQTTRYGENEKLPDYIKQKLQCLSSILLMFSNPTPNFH

[5] = target: Casein kinase I isoform delta (Homo sapiens, UniProt P48730)
Sequence of Casein kinase I isoform delta (P48730 whole entry, canonical isoform): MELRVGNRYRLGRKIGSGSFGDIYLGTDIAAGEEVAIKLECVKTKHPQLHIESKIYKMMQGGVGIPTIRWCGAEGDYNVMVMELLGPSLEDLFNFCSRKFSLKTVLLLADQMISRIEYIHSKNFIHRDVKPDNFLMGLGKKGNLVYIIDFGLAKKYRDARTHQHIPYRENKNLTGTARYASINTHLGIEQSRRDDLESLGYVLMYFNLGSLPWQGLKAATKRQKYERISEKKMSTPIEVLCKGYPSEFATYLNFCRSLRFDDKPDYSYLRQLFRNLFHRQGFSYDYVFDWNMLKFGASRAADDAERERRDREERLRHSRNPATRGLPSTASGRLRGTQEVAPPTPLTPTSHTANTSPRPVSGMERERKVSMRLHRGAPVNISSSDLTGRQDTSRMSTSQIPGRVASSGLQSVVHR

[6] = target: cAMP-dependent protein kinase catalytic subunit beta (Homo sapiens, UniProt P22694)
[7] = target: U5 small nuclear ribonucleoprotein 200 kDa helicase (Homo sapiens, UniProt O75643)
Sequence of U5 small nuclear ribonucleoprotein 200 kDa helicase (O75643 whole entry): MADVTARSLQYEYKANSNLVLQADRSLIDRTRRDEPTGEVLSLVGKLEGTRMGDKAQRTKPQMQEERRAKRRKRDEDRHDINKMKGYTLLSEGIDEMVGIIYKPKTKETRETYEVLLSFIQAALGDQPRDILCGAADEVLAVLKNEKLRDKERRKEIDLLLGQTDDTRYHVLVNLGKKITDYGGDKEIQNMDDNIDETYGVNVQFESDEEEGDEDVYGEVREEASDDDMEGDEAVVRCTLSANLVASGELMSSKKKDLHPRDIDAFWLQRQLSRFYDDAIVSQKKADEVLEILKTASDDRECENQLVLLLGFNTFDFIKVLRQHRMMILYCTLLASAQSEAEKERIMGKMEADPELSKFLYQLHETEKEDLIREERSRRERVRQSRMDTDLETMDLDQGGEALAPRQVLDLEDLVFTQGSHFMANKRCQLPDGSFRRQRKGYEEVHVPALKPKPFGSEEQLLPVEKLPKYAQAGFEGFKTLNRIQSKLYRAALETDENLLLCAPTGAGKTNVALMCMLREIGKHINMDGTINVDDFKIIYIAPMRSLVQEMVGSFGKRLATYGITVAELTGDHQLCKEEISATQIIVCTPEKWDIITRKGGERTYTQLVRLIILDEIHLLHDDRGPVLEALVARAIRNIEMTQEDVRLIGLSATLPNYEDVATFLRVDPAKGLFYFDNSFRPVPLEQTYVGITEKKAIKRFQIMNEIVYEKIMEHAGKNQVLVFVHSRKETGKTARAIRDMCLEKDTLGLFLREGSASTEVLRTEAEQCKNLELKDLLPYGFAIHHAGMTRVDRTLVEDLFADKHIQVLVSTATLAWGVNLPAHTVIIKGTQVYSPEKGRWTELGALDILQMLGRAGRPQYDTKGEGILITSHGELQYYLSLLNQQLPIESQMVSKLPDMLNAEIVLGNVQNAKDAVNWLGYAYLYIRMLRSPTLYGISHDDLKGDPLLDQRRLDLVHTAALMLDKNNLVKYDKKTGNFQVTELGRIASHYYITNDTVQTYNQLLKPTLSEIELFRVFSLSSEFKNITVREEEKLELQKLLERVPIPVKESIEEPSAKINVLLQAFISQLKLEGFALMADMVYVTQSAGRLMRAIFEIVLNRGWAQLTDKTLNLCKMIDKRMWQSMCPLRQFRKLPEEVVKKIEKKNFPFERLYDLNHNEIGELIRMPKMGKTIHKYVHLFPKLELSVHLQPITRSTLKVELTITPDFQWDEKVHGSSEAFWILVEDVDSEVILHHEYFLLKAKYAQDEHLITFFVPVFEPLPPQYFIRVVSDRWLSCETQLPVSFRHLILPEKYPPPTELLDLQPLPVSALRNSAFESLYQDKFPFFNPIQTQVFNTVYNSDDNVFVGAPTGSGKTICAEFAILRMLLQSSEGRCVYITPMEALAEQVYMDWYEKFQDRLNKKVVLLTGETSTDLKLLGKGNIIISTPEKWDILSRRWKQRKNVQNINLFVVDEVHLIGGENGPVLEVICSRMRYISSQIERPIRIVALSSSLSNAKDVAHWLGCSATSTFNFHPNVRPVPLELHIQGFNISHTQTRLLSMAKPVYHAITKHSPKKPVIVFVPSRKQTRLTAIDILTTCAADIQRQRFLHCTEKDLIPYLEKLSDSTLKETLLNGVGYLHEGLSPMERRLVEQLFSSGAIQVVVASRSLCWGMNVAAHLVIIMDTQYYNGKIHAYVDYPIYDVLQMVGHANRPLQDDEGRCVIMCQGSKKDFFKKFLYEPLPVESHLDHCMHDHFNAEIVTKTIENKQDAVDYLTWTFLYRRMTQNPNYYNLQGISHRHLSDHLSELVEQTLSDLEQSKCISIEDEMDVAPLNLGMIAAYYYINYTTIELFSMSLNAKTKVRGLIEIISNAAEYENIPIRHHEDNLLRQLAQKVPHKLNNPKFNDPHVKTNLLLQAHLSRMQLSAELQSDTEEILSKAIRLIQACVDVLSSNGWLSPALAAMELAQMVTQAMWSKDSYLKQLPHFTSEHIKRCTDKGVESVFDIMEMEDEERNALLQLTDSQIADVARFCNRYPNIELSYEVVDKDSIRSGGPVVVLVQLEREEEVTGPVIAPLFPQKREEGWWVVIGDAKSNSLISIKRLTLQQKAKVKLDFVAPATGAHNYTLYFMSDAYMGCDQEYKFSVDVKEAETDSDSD

[8] = target: T3, ADP/ATP translocase 2 (Homo sapiens, UniProt P05141)
T3 sequence (P05141 whole entry): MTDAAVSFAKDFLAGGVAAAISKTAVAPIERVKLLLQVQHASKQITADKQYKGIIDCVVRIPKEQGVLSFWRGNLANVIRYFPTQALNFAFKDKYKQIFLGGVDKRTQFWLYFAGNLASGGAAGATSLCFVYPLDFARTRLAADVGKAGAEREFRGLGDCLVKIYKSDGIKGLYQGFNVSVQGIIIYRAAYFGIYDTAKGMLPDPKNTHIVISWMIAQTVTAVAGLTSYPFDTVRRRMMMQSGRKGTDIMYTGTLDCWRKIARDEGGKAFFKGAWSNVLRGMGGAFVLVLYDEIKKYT

[9] = target: Insulin receptor (Homo sapiens, UniProt P06213)
Sequence of Insulin receptor (P06213 28-758 limits assumed): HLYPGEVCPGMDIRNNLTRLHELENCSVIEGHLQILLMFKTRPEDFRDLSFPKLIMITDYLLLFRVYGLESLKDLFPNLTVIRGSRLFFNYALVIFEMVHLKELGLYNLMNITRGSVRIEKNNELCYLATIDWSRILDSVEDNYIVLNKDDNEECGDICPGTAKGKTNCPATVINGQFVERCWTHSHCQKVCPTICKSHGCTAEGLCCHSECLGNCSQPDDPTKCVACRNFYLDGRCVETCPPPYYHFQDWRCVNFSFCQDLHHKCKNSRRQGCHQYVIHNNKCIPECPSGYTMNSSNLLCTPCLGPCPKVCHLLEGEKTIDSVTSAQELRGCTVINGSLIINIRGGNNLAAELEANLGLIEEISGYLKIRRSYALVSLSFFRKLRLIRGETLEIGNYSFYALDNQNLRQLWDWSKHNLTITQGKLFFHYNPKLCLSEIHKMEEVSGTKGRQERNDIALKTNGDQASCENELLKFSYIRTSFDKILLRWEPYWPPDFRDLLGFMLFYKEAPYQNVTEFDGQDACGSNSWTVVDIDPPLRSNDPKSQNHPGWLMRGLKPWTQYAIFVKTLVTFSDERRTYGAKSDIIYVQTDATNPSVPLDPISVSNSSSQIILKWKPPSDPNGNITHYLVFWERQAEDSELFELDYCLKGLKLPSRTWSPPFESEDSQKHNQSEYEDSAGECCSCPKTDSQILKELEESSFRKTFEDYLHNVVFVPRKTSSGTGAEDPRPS
Sequence of Insulin receptor (P06213 763-1382 limits assumed): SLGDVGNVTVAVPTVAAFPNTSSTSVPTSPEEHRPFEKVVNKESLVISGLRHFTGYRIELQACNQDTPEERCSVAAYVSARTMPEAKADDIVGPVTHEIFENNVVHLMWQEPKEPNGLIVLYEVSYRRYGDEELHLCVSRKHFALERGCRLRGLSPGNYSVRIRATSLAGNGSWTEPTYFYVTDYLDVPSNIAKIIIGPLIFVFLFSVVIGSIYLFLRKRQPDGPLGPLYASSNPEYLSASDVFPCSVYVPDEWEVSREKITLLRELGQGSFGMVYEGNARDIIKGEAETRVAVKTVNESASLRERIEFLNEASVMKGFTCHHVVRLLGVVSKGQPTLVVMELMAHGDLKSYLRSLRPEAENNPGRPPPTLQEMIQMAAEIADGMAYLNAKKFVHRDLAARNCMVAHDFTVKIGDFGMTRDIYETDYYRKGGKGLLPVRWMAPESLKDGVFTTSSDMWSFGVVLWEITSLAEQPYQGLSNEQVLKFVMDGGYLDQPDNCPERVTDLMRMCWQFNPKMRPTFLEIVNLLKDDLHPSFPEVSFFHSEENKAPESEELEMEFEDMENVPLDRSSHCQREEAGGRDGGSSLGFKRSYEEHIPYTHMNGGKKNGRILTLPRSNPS
Also: in the data inactive means no Kd found up to 30 µM.

Sequence of Dual specificity mitogen-activated protein kinase kinase 1 (Q02750 whole entry): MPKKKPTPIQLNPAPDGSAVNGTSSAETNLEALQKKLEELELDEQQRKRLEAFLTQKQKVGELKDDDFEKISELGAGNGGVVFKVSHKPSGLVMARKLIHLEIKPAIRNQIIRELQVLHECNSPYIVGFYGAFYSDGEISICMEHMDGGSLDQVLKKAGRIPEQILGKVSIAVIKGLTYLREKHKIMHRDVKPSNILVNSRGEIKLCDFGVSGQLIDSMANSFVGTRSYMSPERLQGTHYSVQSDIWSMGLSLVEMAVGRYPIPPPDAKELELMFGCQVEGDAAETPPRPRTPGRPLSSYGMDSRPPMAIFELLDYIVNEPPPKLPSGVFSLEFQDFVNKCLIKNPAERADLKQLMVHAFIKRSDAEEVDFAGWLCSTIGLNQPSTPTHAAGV
Sequence of Glycogen synthase kinase-3 beta (P49841 whole entry): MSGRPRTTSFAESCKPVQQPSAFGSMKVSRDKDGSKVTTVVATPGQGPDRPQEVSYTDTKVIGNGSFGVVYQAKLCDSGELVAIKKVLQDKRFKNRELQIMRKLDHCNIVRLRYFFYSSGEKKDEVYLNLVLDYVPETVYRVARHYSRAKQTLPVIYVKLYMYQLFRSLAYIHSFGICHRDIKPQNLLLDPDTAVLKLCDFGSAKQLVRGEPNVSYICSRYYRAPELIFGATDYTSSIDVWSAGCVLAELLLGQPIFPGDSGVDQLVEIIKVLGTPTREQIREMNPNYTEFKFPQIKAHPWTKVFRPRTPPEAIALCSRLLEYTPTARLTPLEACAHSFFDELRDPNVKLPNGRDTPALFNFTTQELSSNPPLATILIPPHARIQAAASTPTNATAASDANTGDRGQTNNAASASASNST

Row | Kd [1] | Kd [2] | Kd [3] | Kd [4] | Kd [5] | Kd [6] | Kd [7] | Kd [8] | Kd [9] | Compound
1 | > 30 µM (inactive) | > 30 µM (inactive) | > 30 µM (inactive) | > 30 µM (inactive) | > 30 µM (inactive) | > 30 µM (inactive) | > 30 µM (inactive) | > 30 µM (inactive) | > 30 µM (inactive) | CO[C@H]1C[C@@H]2CC[C@@H](C)[C@@](O)(O2)C(=O)C(=O)N2CCCC[C@H]2C(=O)O[C@H]([C@H](C)C[C@@H]2CC[C@@H](OCCO)[C@H](OC)C2)CC(=O)[C@H](C)/C=C(\C)[C@@H](O)[C@@H](OC)C(=O)[C@H](C)C[C@H](C)/C=C/C=C/C=C/1C [EVEROLIMUS]
2 | > 30 µM (inactive) | > 30 µM (inactive) | > 30 µM (inactive) | 1.42 µM (active) | > 30 µM (inactive) | > 30 µM (inactive) | > 30 µM (inactive) | > 30 µM (inactive) | > 30 µM (inactive) | COCCNCc1ccc(-c2cc3nccc(Oc4ccc(NC(=S)NC(=O)Cc5ccc(F)cc5)cc4F)c3s2)nc1 [GLESATINIB]
3 | > 30 µM (inactive) | 18.5 µM (active) | > 30 µM (inactive) | > 30 µM (inactive) | 21.5 µM (active) | > 30 µM (inactive) | > 30 µM (inactive) | > 30 µM (inactive) | > 30 µM (inactive) | O=C1NC(=O)/C(=C/c2ccc3nccc(-c4ccncc4)c3c2)S1 [GSK-1059615]
4 | > 30 µM (inactive) | > 30 µM (inactive) | > 30 µM (inactive) | > 30 µM (inactive) | > 30 µM (inactive) | > 30 µM (inactive) | > 30 µM (inactive) | > 30 µM (inactive) | > 30 µM (inactive) | Cn1cc(-c2ccc3nnc(C(F)(F)c4ccc5ncccc5c4)n3n2)cn1 [JNJ-38877605]
5 | > 30 µM (inactive) | > 30 µM (inactive) | > 30 µM (inactive) | 0.183 µM (active) | > 30 µM (inactive) | > 30 µM (inactive) | > 30 µM (inactive) | > 30 µM (inactive) | > 30 µM (inactive) | O=C(O)[C@]1(Cc2cccc(Nc3nccs3)n2)CC[C@@H](Oc2cccc(Cl)c2F)CC1 [MK-5108]
6 | > 30 µM (inactive) | > 30 µM (inactive) | > 30 µM (inactive) | > 30 µM (inactive) | > 30 µM (inactive) | > 30 µM (inactive) | > 30 µM (inactive) | > 30 µM (inactive) | > 30 µM (inactive) | C1=C/COCc2cc(ccc2OCCN2CCCC2)Nc2nccc(n2)-c2cccc(c2)COC/1 [PACRITINIB]
7 | > 30 µM (inactive) | > 30 µM (inactive) | > 30 µM (inactive) | > 30 µM (inactive) | > 30 µM (inactive) | > 30 µM (inactive) | > 30 µM (inactive) | > 30 µM (inactive) | > 30 µM (inactive) | CNC(=O)c1ccc(C)c(-n2c(C)cc(OCc3ccc(F)cc3F)c(Br)c2=O)c1 [PH-797804]
8 | > 30 µM (inactive) | > 30 µM (inactive) | > 30 µM (inactive) | > 30 µM (inactive) | > 30 µM (inactive) | > 30 µM (inactive) | > 30 µM (inactive) | > 30 µM (inactive) | > 30 µM (inactive) | CNC(=O)c1cc(Oc2ccc(NC(=O)Nc3ccc(Cl)c(C(F)(F)F)c3)c(F)c2)ccn1 [REGORAFENIB]
9 | > 30 µM (inactive) | > 30 µM (inactive) | > 30 µM (inactive) | > 30 µM (inactive) | > 30 µM (inactive) | > 30 µM (inactive) | > 30 µM (inactive) | > 30 µM (inactive) | > 30 µM (inactive) | CN(C)C(=O)c1cc2cnc(Nc3ccc(N4CCNCC4)cn3)nc2n1C1CCCC1 [RIBOCICLIB]
10 | > 30 µM (inactive) | > 30 µM (inactive) | > 30 µM (inactive) | > 30 µM (inactive) | > 30 µM (inactive) | > 30 µM (inactive) | > 30 µM (inactive) | > 30 µM (inactive) | > 30 µM (inactive) | COc1cc(OC)c(/C=C/S(=O)(=O)Cc2ccc(OC)c(NCC(=O)O)c2)c(OC)c1 [RIGOSERTIB]
11 | > 30 µM (inactive) | > 30 µM (inactive) | 2.28 µM | > 30 µM (inactive) | > 30 µM (inactive) | > 30 µM (inactive) | > 30 µM (inactive) | > 30 µM (inactive) | > 30 µM (inactive) | CNC(=O)CN1CCC(Oc2cc3c(Nc4cccc(Cl)c4F)ncnc3cc2OC)CC1 [SAPITINIB]
12 | > 30 µM (inactive) | > 30 µM (inactive) | > 30 µM (inactive) | > 30 µM (inactive) | > 30 µM (inactive) | > 30 µM (inactive) | > 30 µM (inactive) | > 30 µM (inactive) | > 30 µM (inactive) | CN1CCC(CNc2ccc3ncc(-c4cccc(OC(F)(F)F)c4)n3n2)CC1 [SGI-1776]
13 | > 30 µM (inactive) | > 30 µM (inactive) | > 30 µM (inactive) | > 30 µM (inactive) | > 30 µM (inactive) | > 30 µM (inactive) | > 30 µM (inactive) | > 30 µM (inactive) | > 30 µM (inactive) | C[C@@H]1CN(Cc2ccc(F)cc2)[C@@H](C)CN1C(=O)c1cc2c(C(=O)C(=O)N(C)C)cn(C)c2cc1Cl [TALMAPIMOD]

Row | Compound | Kd [1] | Kd [2] | Kd [3] | Kd [4] | Kd [5] | Kd [6] | Kd [7] | Kd [8] | Kd [9]
14 | Cc1ccc(-n2nc(C(C)(C)C)cc2NC(=O)NCc2cc(F)ccc2Oc2ccc3c(cnn3CCO)c2)cc1 [PEXMETINIB] | > 30 µM (inactive) | > 30 µM (inactive) | > 30 µM (inactive) | > 30 µM (inactive) | > 30 µM (inactive) | > 30 µM (inactive) | > 30 µM (inactive) | > 30 µM (inactive) | > 30 µM (inactive)
15 | C=CC(=O)N1CCC(Oc2cc3c(Nc4ccc(Cl)c(Cl)c4F)ncnc3cc2OC)CC1 [POZIOTINIB] | > 30 µM (inactive) | > 30 µM (inactive) | 2.24 µM (active) | > 30 µM (inactive) | > 30 µM (inactive) | > 30 µM (inactive) | > 30 µM (inactive) | > 30 µM (inactive) | > 30 µM (inactive)
